# Laboratory results as given in patent publication US8192962B2, “Processes for detecting toxic substances” (Daikin Industries, Ltd., priority 2001, dated 2012).
# System: Transport facilitation protein genes
# Experiment: DNA chip mRNA expression in yeast, transport facilitation protein genes (Table 5)
# Type: cell-based, Saccharomyces cerevisiae S288C
# Procedure, shortened: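 Whole-genome yeast DNA chip hybridization (65° C., >12 h) of Cy-labeled cDNA from S288C cells exposed 2 h at 25° C. to a sub-lethal toxicant dose in YPD; value is intensity relative to chemical-free control.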
substance,measurement,setting,value
manganese ethylenebis(dithiocarbamate) [(8)],The level of expressed mRNA in the presence of chemical substance/The level of expressed mRNA in the absence of chemical substance,yeast gene YBL030C,0.8
same,The level of expressed mRNA in the presence of chemical substance/The level of expressed mRNA in the absence of chemical substance,yeast gene YBL099W,0.8
same,The level of expressed mRNA in the presence of chemical substance/The level of expressed mRNA in the absence of chemical substance,yeast gene YBR052C,1.3
same,The level of expressed mRNA in the presence of chemical substance/The level of expressed mRNA in the absence of chemical substance,yeast gene YBR068C,1.0
same,The level of expressed mRNA in the presence of chemical substance/The level of expressed mRNA in the absence of chemical substance,yeast gene YBR127C,1.1
same,The level of expressed mRNA in the presence of chemical substance/The level of expressed mRNA in the absence of chemical substance,yeast gene YBR132C,0.8
same,The level of expressed mRNA in the presence of chemical substance/The level of expressed mRNA in the absence of chemical substance,yeast gene YBR207W,0.9
same,The level of expressed mRNA in the presence of chemical substance/The level of expressed mRNA in the absence of chemical substance,yeast gene YBR293W,0.9
same,The level of expressed mRNA in the presence of chemical substance/The level of expressed mRNA in the absence of chemical substance,yeast gene YBR294W,1.0
same,The level of expressed mRNA in the presence of chemical substance/The level of expressed mRNA in the absence of chemical substance,yeast gene YBR295W,0.9
same,The level of expressed mRNA in the presence of chemical substance/The level of expressed mRNA in the absence of chemical substance,yeast gene YBR298C,0.5
same,The level of expressed mRNA in the presence of chemical substance/The level of expressed mRNA in the absence of chemical substance,yeast gene YCL025C,0.7
same,The level of expressed mRNA in the presence of chemical substance/The level of expressed mRNA in the absence of chemical substance,yeast gene YCL038C,1.2
same,The level of expressed mRNA in the presence of chemical substance/The level of expressed mRNA in the absence of chemical substance,yeast gene YCR024C-A,0.8
same,The level of expressed mRNA in the presence of chemical substance/The level of expressed mRNA in the absence of chemical substance,yeast gene YCR037C,0.7
same,The level of expressed mRNA in the presence of chemical substance/The level of expressed mRNA in the absence of chemical substance,yeast gene YCR098C,1.0
same,The level of expressed mRNA in the presence of chemical substance/The level of expressed mRNA in the absence of chemical substance,yeast gene YDL128W,0.8
same,The level of expressed mRNA in the presence of chemical substance/The level of expressed mRNA in the absence of chemical substance,yeast gene YDL198C,1.1
same,The level of expressed mRNA in the presence of chemical substance/The level of expressed mRNA in the absence of chemical substance,yeast gene YDL210W,1.1
same,The level of expressed mRNA in the presence of chemical substance/The level of expressed mRNA in the absence of chemical substance,yeast gene YDL245C,1.2
same,The level of expressed mRNA in the presence of chemical substance/The level of expressed mRNA in the absence of chemical substance,yeast gene YDR038C,0.9
same,The level of expressed mRNA in the presence of chemical substance/The level of expressed mRNA in the absence of chemical substance,yeast gene YDR039C,0.6
same,The level of expressed mRNA in the presence of chemical substance/The level of expressed mRNA in the absence of chemical substance,yeast gene YDR086C,1.9
same,The level of expressed mRNA in the presence of chemical substance/The level of expressed mRNA in the absence of chemical substance,yeast gene YDR270W,1.2
same,The level of expressed mRNA in the presence of chemical substance/The level of expressed mRNA in the absence of chemical substance,yeast gene YDR298C,1.2
same,The level of expressed mRNA in the presence of chemical substance/The level of expressed mRNA in the absence of chemical substance,yeast gene YDR342C,1.2
same,The level of expressed mRNA in the presence of chemical substance/The level of expressed mRNA in the absence of chemical substance,yeast gene YDR343C,1.2
same,The level of expressed mRNA in the presence of chemical substance/The level of expressed mRNA in the absence of chemical substance,yeast gene YDR345C,1.2
same,The level of expressed mRNA in the presence of chemical substance/The level of expressed mRNA in the absence of chemical substance,yeast gene YDR387C,0.7
same,The level of expressed mRNA in the presence of chemical substance/The level of expressed mRNA in the absence of chemical substance,yeast gene YDR497C,0.6
same,The level of expressed mRNA in the presence of chemical substance/The level of expressed mRNA in the absence of chemical substance,yeast gene YEL027W,0.9
same,The level of expressed mRNA in the presence of chemical substance/The level of expressed mRNA in the absence of chemical substance,yeast gene YEL063C,0.6
same,The level of expressed mRNA in the presence of chemical substance/The level of expressed mRNA in the absence of chemical substance,yeast gene YEL065W,0.9
same,The level of expressed mRNA in the presence of chemical substance/The level of expressed mRNA in the absence of chemical substance,yeast gene YER053C,1.3
same,The level of expressed mRNA in the presence of chemical substance/The level of expressed mRNA in the absence of chemical substance,yeast gene YFL011W,0.8
same,The level of expressed mRNA in the presence of chemical substance/The level of expressed mRNA in the absence of chemical substance,yeast gene YFL041W,1.0
same,The level of expressed mRNA in the presence of chemical substance/The level of expressed mRNA in the absence of chemical substance,yeast gene YFL050C,0.9
same,The level of expressed mRNA in the presence of chemical substance/The level of expressed mRNA in the absence of chemical substance,yeast gene YFL054C,1.5
same,The level of expressed mRNA in the presence of chemical substance/The level of expressed mRNA in the absence of chemical substance,yeast gene YGL006W,0.9
same,The level of expressed mRNA in the presence of chemical substance/The level of expressed mRNA in the absence of chemical substance,yeast gene YGL008C,0.7
same,The level of expressed mRNA in the presence of chemical substance/The level of expressed mRNA in the absence of chemical substance,yeast gene YGL104C,0.8
same,The level of expressed mRNA in the presence of chemical substance/The level of expressed mRNA in the absence of chemical substance,yeast gene YGL167C,0.8
same,The level of expressed mRNA in the presence of chemical substance/The level of expressed mRNA in the absence of chemical substance,yeast gene YGL255W,0.7
same,The level of expressed mRNA in the presence of chemical substance/The level of expressed mRNA in the absence of chemical substance,yeast gene YGR055W,1.1
same,The level of expressed mRNA in the presence of chemical substance/The level of expressed mRNA in the absence of chemical substance,yeast gene YGR065C,1.0
same,The level of expressed mRNA in the presence of chemical substance/The level of expressed mRNA in the absence of chemical substance,yeast gene YGR082W,0.8
same,The level of expressed mRNA in the presence of chemical substance/The level of expressed mRNA in the absence of chemical substance,yeast gene YGR096W,1.0
same,The level of expressed mRNA in the presence of chemical substance/The level of expressed mRNA in the absence of chemical substance,yeast gene YGR138C,1.0
same,The level of expressed mRNA in the presence of chemical substance/The level of expressed mRNA in the absence of chemical substance,yeast gene YGR191W,0.7
same,The level of expressed mRNA in the presence of chemical substance/The level of expressed mRNA in the absence of chemical substance,yeast gene YGR197C,0.8
